One data set in a line: physchem. Format: physicochemical. As to conditions: water. Here is the method: Solubility in water was measured according to the Pharmacopoeia Japan.
Data set [1] in a line: Oral absorbability in dogs (drug concentration in plasma). Format: in vivo, Male beagles (dog). As to conditions: dog. As for the experimental part:
Male beagles for experimental use were fasted one night before the administration of the test drugs. The drugs were suspended in a 0.1% TWEEN 80--0.1M NaCl--50 mM phosphate buffer solution for administration. All the drugs were forcefully administered in an amount of 50 mg/kg using an oral probe for dogs. Three animals were used for each test group. Blood samples were taken 9 times; 0.25, 0.5, 1, 1.5, 2, 4, 6, 9 and 24 hours after the administration. Blood samples of 5 ml were taken at each sampling time using a heparin-treated disposable injection syringe. Each blood was centrifuged at 3000 rpm for 15 minutes to obtain plasma. Drug concentrations in plasma were measured using HPLC and then calculated from a calibration curve for a standard sample.

Data set [2] can be described thus: Oral absorbability test in mice (drug concentration in plasma). Also on record: species or system 7-Week-old female CDF1 mice. The following applies: mouse, in vivo. As for the experimental part:
7-Week-old female CDF1 mice were fasted one night before the administration of the test drugs. The drugs were suspended in an aqueous 0.1% TWEEN 80 solution for administration and were forcefully administered in an amount of 100 mg/kg (for the compound No. 2 of Example 1-(c)) and 109 mg/kg (for the compound No. 4 of Comparative Example 1) so as to get the equivalent molarity using a probe for oral administration. Three animals were used for each test group. Blood samples were taken 4 times; 0.5, 1.0, 2.0 and 4.0 hours after the administration. Blood samples were taken by cardiocentesis under anesthesia with chloroform using a heparin-treated disposable injection syringe, Each blood was centrifuged at 4° C. at 6000 rpm for 10 minutes to obtain plasma. Drug concentrations in plasma were measured using HPLC and then calculated from a calibration curve for a standard sample, Results are shown in the following Tables.

For data set [3], the system named is Vincristine-resistant mouse leukemia cells, P388/VCR. Kind of data set: Carcinostatic-effect-stimulating activity (IC50 of vincristine on vincristine-resistant cells). Format: cell-based. As to conditions: 72 h, read-out: IC50 of vincristine. Here is the method:
Carcinostatic-effect-stimulating activity
Vincristine-resistant mouse leukemia cells, P388/VCR, were suspended at a concentration of 2×10^4 cells/ml in an RPMI-1640 medium solution containing […]. 2 ml of the cancer cell suspension per tube (12×75 mm) were inoculated and incubated at 37° C. in a 5% CO2 atmosphere. After 6 hours, vincristine and the compound No. 2 of Example 1-(c) at a concentration of 0.3, 1 or 3 microgram/ml and the incubation was continued at 37° C. under a 5% CO2 atmosphere for 72 hours. The cell culture was added to 9.5 ml of ISOTON II, the number of cells was counted using a call counter and then 50% growth inhibiting concentrations of vincristine IC50 (ng/ml) were calculated.

Values after ≈ are worked out from the molar mass of the structure shown. Where two headings read alike, the source gives them in different places.

The solubility is the concentration that dissolves in the medium under given conditions. By IC50 is commonly meant the point on the concentration scale where inhibition reaches its midpoint.

Compound `O=C(C(c1ccccc1)c1ccccc1)N1CCN(CC(O)COc2cccc3ncccc23)CC1` (stereo not drawn) [compound No. 1, 5-[3-{4-(2,2diphenylacetyl)piperazin-1-yl}-2-hydroxypropoxy]quinoline] registered a solubility in “physchem” below 1000 µg/mL. For the same compound, in data set [1] (in vivo, po, 50 mg/kg), the concentration at 0.25 h is 2460 ng/mL, the concentration at 0.5 h came out at 3370 ng/mL, the concentration at 1 h turned out to be 4530 ng/mL and the concentration at 1.5 h was 4350 ng/mL. Also, in data set [1] (in vivo, po, 50 mg/kg), the concentration at 2 h came to 4180 ng/mL, the concentration at 4 h is 2430 ng/mL, the concentration at 6 h is 1620 ng/mL and the concentration at 9 h is 440 ng/mL.

In turn, `O=C(C(c1ccccc1)c1ccccc1)N1CCN(CC(O)COc2cccc3ncccc23)CC1.O=C(O)/C=C/C(=O)O` (stereo not drawn) [compound No. 2, 5-[3-{4-(2,2-diphenylacetyl)piperazin-1-yl}-2-hydroxypropoxy]quinoline fumarate] came in with a solubility in the data set “physchem” of 1400 µg/mL. Further, the concentration at 0.5 h in data set [2] (po, 100 mg/kg) was found to be 18000 ng/mL; in data set [1] (plasma, male beagles, oral 50 mg/kg, 0.5 hr, read-out: Concentration in plasma, Average), 14700 ng/mL. The concentration at 1 h is 21800 ng/mL in data set [2] (po, 100 mg/kg) and 13200 ng/mL in data set [1] (plasma, male beagles, oral 50 mg/kg, 1 hr, read-out: Concentration in plasma, Average). In addition, the concentration at 2 h in data set [2] (po, 100 mg/kg) is 16000 ng/mL; in data set [1] (plasma, male beagles, oral 50 mg/kg, 2 hr, read-out: Concentration in plasma, Average) it was 10500 ng/mL. Also, the concentration at 4 h in data set [2] (po, 100 mg/kg) came out at 13700 ng/mL; in data set [1] (plasma, male beagles, oral 50 mg/kg, 4 hr, read-out: Concentration in plasma, Average), 6760 ng/mL. Moreover, the concentration at 1.5 h in data set [1] (plasma, male beagles, oral 50 mg/kg, 1.5 hr, read-out: Concentration in plasma, Average) was 12700 ng/mL. For the same compound, the concentration at 6 h in data set [1] (plasma, male beagles, oral 50 mg/kg, 6 hr, read-out: Concentration in plasma, Average) turned out to be 3700 ng/mL. The concentration at 9 h in data set [1] (plasma, male beagles, oral 50 mg/kg, 9 hr, read-out: Concentration in plasma, Average) came out at 1210 ng/mL. Besides, the concentration at 24 h in data set [1] (plasma, male beagles, oral 50 mg/kg, 24 hr) was determined as 30 ng/mL. Further, the IC50 in data set [3] (vincristine with compound at 0.3 microgram/ml) is 0.0569 µg/mL; in data set [3] (vincristine with compound at 1 microgram/ml) it was 0.022 µg/mL; in data set [3] (vincristine with compound at 3 microgram/ml), 0.00412 µg/mL.

Turning to `O=C(C(c1ccccc1)c1ccccc1)N1CCN(CC(O)COc2cccc3ncccc23)CC1.O=C(O)CC(O)C(=O)O` (stereo not drawn) [compound No. 4, 5-[3-{4-(2,2-diphenylacetyl)piperazin-1-yl)-2-hydroxypropoxy]quinoline malate], the concentration at 0.5 h in data set [2] (female CDF1 mice, oral 109 mg/kg (equivalent molarity), 0.5 hr, read-out: Concentration in plasma, Average of 3 mice) amounted to 14300 ng/mL. Also, the concentration at 1 h in data set [2] (female CDF1 mice, oral 109 mg/kg (equivalent molarity), 1.0 hr, read-out: Concentration in plasma, Average of 3 mice) worked out at 11400 ng/mL. Also, the concentration at 2 h in data set [2] (female CDF1 mice, oral 109 mg/kg (equivalent molarity), 2.0 hr, read-out: Concentration in plasma, Average of 3 mice) came to 11900 ng/mL. Also, the concentration at 4 h in data set [2] (female CDF1 mice, oral 109 mg/kg (equivalent molarity), 4.0 hr, read-out: Concentration in plasma, Average of 3 mice) was 5990 ng/mL.

In the case of `CC[C@]1(O)C[C@H]2CN(CCc3c([nH]c4ccccc34)[C@@](C(=O)OC)(c3cc4c(cc3OC)N(C=O)[C@H]3[C@@](O)(C(=O)OC)[C@H](OC(C)=O)[C@]5(CC)C=CCN6CC[C@]43[C@@H]65)C2)C1` [vincristine, reference compound], in data set [3], the IC50 was found to be 0.142 µg/mL (≈ 0.172 µM).
